Laboratory results reported in the NIST ThermoML archive (doi:10.1016/j.jct.2012.10.008).

Experiment: xn = mol fraction of the nth substance listed
Conditions: 101 kPa, Liquid; for viscosity: Falling or rolling sphere viscometry; for mass density: Vibrating tube method

CCCC[NH3+].O=[N+]([O-])[O-] [n-butylammonium nitrate] + CCCCO
Conditions	mass density, 293.15 K [kg/m3]	mass density, 298.15 K [kg/m3]	mass density, 303.15 K [kg/m3]	mass density, 308.15 K [kg/m3]	mass density, 313.15 K [kg/m3]	viscosity, 293.15 K [mPa·s]	viscosity, 298.15 K [mPa·s]	viscosity, 303.15 K [mPa·s]	viscosity, 308.15 K [mPa·s]	viscosity, 313.15 K [mPa·s]
x1 = 0.1004	851.35	847.7	844.02	840.32	836.6	5.242	4.554	3.985	3.506	3.099
x1 = 0.1999	888.16	884.59	881	877.4	873.79	–	6.852	5.961	5.217	4.592
x1 = 0.2993	922.05	918.6	915.12	911.54	908.03	11.36	9.747	8.447	7.302	6.344
x1 = 0.3992	953.58	950.14	946.7	943.25	939.81	17.51	14.95	12.76	11.03	9.601
x1 = 0.4955	982.07	978.69	975.31	971.93	968.56	24.22	20.34	17.34	14.86	12.88
x1 = 0.6508	1024.4	1021.11	1017.81	1014.53	1011.26	38.67	31.95	26.79	22.66	19.51
x1 = 0.801	1061.11	1057.88	1054.67	1051.47	1048.29	60.58	49.4	40.82	34.2	28.96
x1 = 0.8998	1083.71	1080.52	1077.34	1074.19	1071.05	83.12	68.14	56.15	46.69	39.11
x1 = 1	1104.68	1101.52	1098.38	1095.26	1092.17	111.35	89.95	73.04	60.25	50.12

CCCC[NH3+].O=[N+]([O-])[O-] [n-butylammonium nitrate] + CCCO
Conditions	mass density, 293.15 K [kg/m3]	mass density, 298.15 K [kg/m3]	mass density, 303.15 K [kg/m3]	mass density, 308.15 K [kg/m3]	mass density, 313.15 K [kg/m3]	viscosity, 293.15 K [mPa·s]	viscosity, 298.15 K [mPa·s]	viscosity, 303.15 K [mPa·s]	viscosity, 308.15 K [mPa·s]	viscosity, 313.15 K [mPa·s]
x1 = 0.0999	855.12	851.36	847.56	843.75	839.91	4.091	3.599	3.182	2.824	2.516
x1 = 0.2004	898.27	894.64	890.99	887.32	883.65	6.691	5.828	5.108	4.503	3.989
x1 = 0.2994	935.27	931.74	928.19	924.64	921.09	10.45	8.998	7.81	6.822	6.009
x1 = 0.4007	968.52	965.08	961.63	958.18	954.74	16.54	14.11	12.11	10.49	9.207
x1 = 0.4995	997.32	993.96	990.59	987.23	983.88	22.52	19.08	16.29	14.05	12.19
x1 = 0.6495	1035.44	1032.16	1028.88	1025.62	1022.36	38.05	31.62	26.59	22.59	19.39
x1 = 0.7978	1067.64	1064.42	1061.21	1058.02	1054.86	61.01	49.83	41.2	34.54	29.21
x1 = 0.9008	1087.69	1084.51	1081.34	1078.19	1075.07	83.36	67.14	55.16	46.11	40.09
x1 = 1	1104.68	1101.52	1098.38	1095.26	1092.17	111.35	89.95	73.04	60.25	50.12

CCCC[NH3+].O=[N+]([O-])[O-] [n-butylammonium nitrate] + CCO
Conditions	mass density, 293.15 K [kg/m3]	mass density, 298.15 K [kg/m3]	mass density, 303.15 K [kg/m3]	mass density, 308.15 K [kg/m3]	mass density, 313.15 K [kg/m3]	viscosity, 293.15 K [mPa·s]	viscosity, 298.15 K [mPa·s]	viscosity, 303.15 K [mPa·s]	viscosity, 308.15 K [mPa·s]	viscosity, 313.15 K [mPa·s]
x1 = 0.0995	858.45	854.53	850.59	846.63	842.66	2.5	2.251	2.036	1.846	1.682
x1 = 0.1997	910.07	906.36	902.64	898.9	895.16	4.379	3.895	3.486	3.134	2.827
x1 = 0.2999	951.56	947.99	944.41	940.85	937.28	7.388	6.633	5.868	5.192	4.591
x1 = 0.3998	985.07	981.61	978.16	974.71	971.27	12.29	10.67	9.285	8.205	7.25
x1 = 0.5005	1012.9	1009.57	1006.2	1003.2	999.76	18.53	15.89	13.78	12.04	10.57
x1 = 0.6501	1047.63	1044.37	1041.1	1037.86	1034.62	32.66	27.42	23.15	19.83	17.12
x1 = 0.8003	1075.57	1072.36	1069.17	1066	1062.84	56.97	46.57	38.82	32.55	27.74
x1 = 0.8989	1090.94	1087.76	1084.6	1081.46	1078.34	79.51	65.34	53.93	44.86	37.86
x1 = 1	1104.68	1101.52	1098.38	1095.26	1092.17	111.35	89.95	73.04	60.25	50.12

CCCC[NH3+].O=[N+]([O-])[O-] [n-butylammonium nitrate] + CO
Conditions	mass density, 293.15 K [kg/m3]	mass density, 298.15 K [kg/m3]	mass density, 303.15 K [kg/m3]	mass density, 308.15 K [kg/m3]	mass density, 313.15 K [kg/m3]	viscosity, 293.15 K [mPa·s]	viscosity, 298.15 K [mPa·s]	viscosity, 303.15 K [mPa·s]	viscosity, 308.15 K [mPa·s]	viscosity, 313.15 K [mPa·s]
x1 = 0.0999	884.86	880.73	876.67	872.57	868.45	1.377	1.267	1.173	1.119	1.014
x1 = 0.1998	944.76	940.97	937.17	933.38	929.59	2.723	2.466	2.248	2.058	1.893
x1 = 0.3012	987.04	983.43	979.82	976.23	972.64	4.923	4.382	3.934	3.555	3.229
x1 = 0.4005	1016.59	1013.11	1009.64	1006.18	1002.74	9.129	8	7.037	6.242	5.584
x1 = 0.5015	1039.93	1036.55	1033.17	1029.82	1026.48	14.79	12.8	11.16	9.779	8.66
x1 = 0.6507	1065.48	1062.21	1058.95	1055.7	1052.47	28.64	24.08	20.59	17.77	15.5
x1 = 0.8007	1085.18	1081.98	1078.78	1075.61	1072.46	51.33	42.07	35.23	29.65	25.41
x1 = 0.9007	1096.21	1093.04	1089.88	1086.74	1083.63	77.73	64.34	53.02	44.24	37.21
x1 = 1	1104.68	1101.52	1098.38	1095.26	1092.17	111.35	89.95	73.04	60.25	50.12
